From ChEMBL document CHEMBL3758179, “Baicalin Alleviates Silica-Induced Lung Inflammation and Fibrosis by Inhibiting the Th17 Response in C57BL/6 Mice” (2015)
The source made the active and inactive calls. No cut-off for these calls is given here.

What was measured:
Mus musculus [1] = experiment: Antiinflammatory activity in C57BL/6 mouse silicosis model assessed as reduction in silica-induced accumulation of neutrophils in bronchoalveolar lavage fluid at 2 mg, ip administered every day measured on day 7 by Giemsa staining method; assay type: functional, organism-based
Mus musculus [2] = experiment: Antiinflammatory activity in C57BL/6 mouse silicosis model assessed as silica-induced accumulation of macrophages in bronchoalveolar lavage fluid at 2 mg, ip administered every day measured on day 7,28 and 56 by Giemsa staining method; assay type: functional, organism-based
Mus musculus [3] = experiment: Induction of Treg response in silica-induced C57BL/6 mouse lung inflammation and fibrosis model assessed as increase in TGF-beta mRNA expression at 2 mg, ip administered every day measured on day 7 by real time RT-PCR method relative to silica-treated control; assay type: functional, organism-based
Mus musculus [4] = experiment: Inhibition of Th17 cell differentiation in silica-induced C57BL/6 mouse lung inflammation and fibrosis model assessed as decrease in IL-6 mRNA expression in lung at 2 mg, ip administered every day measured on day 28, 56 by real time RT-PCR method relative to silica-treated control; assay type: functional, organism-based
Mus musculus [5] = experiment: Induction of Treg response in silica-induced C57BL/6 mouse lung inflammation and fibrosis model assessed as increase in Foxp3 mRNA expression in lung at 2 mg, ip administered every day measured on day 28, 56 by real time RT-PCR method relative to silica-treated control; assay type: functional, organism-based
Mus musculus [6] = experiment: Inhibition of Th2 response in silica-induced C57BL/6 mouse lung inflammation and fibrosis model assessed as decrease in GATA-3 mRNA expression in lung at 2 mg, ip administered every day measured on day 7, 56 by real time RT-PCR method relative to silica-treated control; assay type: functional, organism-based
Mus musculus [7] = experiment: Antiinflammatory activity in C57BL/6 mouse silicosis model assessed as reduction in alveolar wall change at 2 mg, ip administered every day measured on day 7,28 and 56 by haematoxylin and eosin staining-based light microscopic analysis relative to silica-treated control; assay type: functional, organism-based
Mus musculus [8] = experiment: Induction of Treg response in silica-induced C57BL/6 mouse lung inflammation and fibrosis model assessed as increase in level of CD4+T cells coexpressing Foxp3 in hilar lymph node at 2 mg, ip administered every day measured on day 7 by flow cytometric analysis (reference value: 12.14 +/- 0.53%); assay type: functional, CD4+T cell
Mus musculus [9] = experiment: Inhibition of Th17 cell differentiation in silica-induced C57BL/6 mouse lung inflammation and fibrosis model assessed as increase in IL-23 mRNA expression in lung at 2 mg, ip administered every day measured on day 7 by real time RT-PCR method relative to silica-treated control; assay type: functional, organism-based
Mus musculus [10] = experiment: Inhibition of Th1 response in silica-induced C57BL/6 mouse lung inflammation and fibrosis model assessed as decrease in level of CD4+T cells coexpressing IFNgamma at 2 mg, ip administered every day measured on day 7 by flow cytometric analysis; assay type: functional, organism-based; details: CD4+T cell
Mus musculus [11] = experiment: Inhibition of Th17 response in spleen in silica-induced C57BL/6 mouse lung inflammation and fibrosis model assessed as decrease in level of CD4+T cells coexpressing IL-17A at 2 mg, ip administered every day measured on day 7 by flow cytometric analysis (reference value: 0.9 +/- 0.11%); assay type: functional, CD4+T cell
Mus musculus [12] = experiment: Induction of Treg response in silica-induced C57BL/6 mouse lung inflammation and fibrosis model assessed as increase in level of CD4+T cells coexpressing Foxp3 in spleen at 2 mg, ip administered every day measured on day 56 by flow cytometric analysis (reference value: 10 +/- 0.53 %); assay type: functional, CD4+T cell
Mus musculus [13] = experiment: Inhibition of Th17 cell differentiation in silica-induced C57BL/6 mouse lung inflammation and fibrosis model assessed as decrease in IL-6 protein level in bronchoalveolar lavage fluid at 2 mg, ip administered every day measured on day 7 by cytometric bead array method relative to silica-treated control; assay type: functional, organism-based
Mus musculus [14] = experiment: Induction of Treg response in silica-induced C57BL/6 mouse lung inflammation and fibrosis model assessed as increase in level of CD4+T cells coexpressing Foxp3 in hilar lymph node at 2 mg, ip administered every day measured on day 28 by flow cytometric analysis (reference value: 8.18 +/- 0.61%); assay type: functional, CD4+T cell
Mus musculus [15] = experiment: Induction of Treg response in silica-induced C57BL/6 mouse lung inflammation and fibrosis model assessed as increase in Foxp3 mRNA expression in spleen at 2 mg, ip administered every day measured on day 7, 28 by real time RT-PCR method relative to silica-treated control; assay type: functional, organism-based
Mus musculus [16] = experiment: Inhibition of Th1 response in silica-induced C57BL/6 mouse lung inflammation and fibrosis model assessed as decrease in IFN-gamma mRNA expression in spleen at 2 mg, ip administered every day measured on day 7, 28 by real time RT-PCR method relative to silica-treated control; assay type: functional, organism-based
Mus musculus [17] = experiment: Inhibition of silica-induced lung fibrosis in C57BL/6 mouse silicosis model at 2 mg, ip administered every day measured on day 28 to 56 by Masson staining-based light microscopic analysis; assay type: functional, organism-based
Mus musculus [18] = experiment: Induction of Treg response in silica-induced C57BL/6 mouse lung inflammation and fibrosis model assessed as increase in level of CD4+T cells coexpressing Foxp3 in spleen at 2 mg, ip administered every day measured on day 28 by flow cytometric analysis (reference value: 10.88 +/- 0.55 %); assay type: functional, CD4+T cell
Mus musculus [19] = experiment: Antiinflammatory activity in C57BL/6 mouse silicosis model assessed as silica-induced accumulation of lymphocytes in bronchoalveolar lavage fluid at 2 mg, ip administered every day measured on day 7,28 and 56 by Giemsa staining method; assay type: functional, organism-based
Mus musculus [20] = experiment: Inhibition of Th17 response in hilar lymph node in silica-induced C57BL/6 mouse lung inflammation and fibrosis model assessed as decrease in level of CD4+T cells coexpressing IL-17A at 2 mg, ip administered every day measured on day 7 by flow cytometric analysis (reference value: 1.08 +/- 0.07%); assay type: functional, CD4+T cell
Mus musculus [21] = experiment: Inhibition of Th17 cell differentiation in silica-induced C57BL/6 mouse lung inflammation and fibrosis model assessed as decrease in IL-6 mRNA expression in lung at 2 mg, ip administered every day measured on day 7 by real time RT-PCR method relative to silica-treated control; assay type: functional, organism-based
Mus musculus [22] = experiment: Inhibition of Th17 response in silica-induced C57BL/6 mouse lung inflammation and fibrosis model assessed as decrease in RORgammat mRNA expression in spleen at 2 mg, ip administered every day measured on day 7, 28, 56 by real time RT-PCR method relative to silica-treated control; assay type: functional, organism-based
Mus musculus [23] = experiment: Induction of Treg response in silica-induced C57BL/6 mouse lung inflammation and fibrosis model assessed as increase in IL-10 mRNA expression in lung at 2 mg, ip administered every day measured on day 7, 28 by real time RT-PCR method relative to silica-treated control; assay type: functional, organism-based
Mus musculus [24] = experiment: Inhibition of Th1 response in silica-induced C57BL/6 mouse lung inflammation and fibrosis model assessed as decrease in TNFalpha mRNA expression in bronchoalveolar lavage fluid at 2 mg, ip administered every day measured on day 7 by real time RT-PCR method; assay type: functional, organism-based
Mus musculus [25] = experiment: Inhibition of Th17 cell differentiation in silica-induced C57BL/6 mouse lung inflammation and fibrosis model assessed as decrease in IL-6 protein level in bronchoalveolar lavage fluid at 2 mg, ip administered every day measured on day 28 to 56 by cytometric bead array method; assay type: functional, organism-based
Mus musculus [26] = experiment: Induction of Treg response in silica-induced C57BL/6 mouse lung inflammation and fibrosis model assessed as increase in level of CD4+T cells coexpressing Foxp3 in hilar lymph node at 2 mg, ip administered every day measured on day 56 by flow cytometric analysis (reference value: 8.76 +/- 0.23%); assay type: functional, CD4+T cell
Mus musculus [27] = experiment: Inhibition of Th17 response in silica-induced C57BL/6 mouse lung inflammation and fibrosis model assessed as decrease in IL-17A mRNA expression in lung at 2 mg, ip administered every day measured on day 7 by real time RT-PCR method relative to silica-treated control; assay type: functional, organism-based
Mus musculus [28] = experiment: Inhibition of Th17 response in spleen in silica-induced C57BL/6 mouse lung inflammation and fibrosis model assessed as decrease in level of CD4+T cells coexpressing IL-17A at 2 mg, ip administered every day measured on day 28 by flow cytometric analysis (reference value: 0.68 +/- 0.07%); assay type: functional, CD4+T cell
Mus musculus [29] = experiment: Inhibition of Th17 response in hilar lymph node in silica-induced C57BL/6 mouse lung inflammation and fibrosis model assessed as decrease in level of CD4+T cells coexpressing IL-17A at 2 mg, ip administered every day measured on day 28 by flow cytometric analysis (reference value: 0.76 +/- 0.07%); assay type: functional, CD4+T cell
Mus musculus [30] = experiment: Antiinflammatory activity in C57BL/6 mouse silicosis model assessed as reduction in inflammatory cell infiltration at 2 mg, ip administered every day measured on day 7,28 and 56 by haematoxylin and eosin staining-based light microscopic analysis relative to silica-treated control; assay type: functional, organism-based
Mus musculus [31] = experiment: Induction of Treg response in silica-induced C57BL/6 mouse lung inflammation and fibrosis model assessed as increase in level of CD4+T cells coexpressing Foxp3 in spleen at 2 mg, ip administered every day measured on day 7 by flow cytometric analysis (reference value: 11.75 +/- 1.03%); assay type: functional, CD4+T cell
Mus musculus [32] = experiment: Inhibition of Th1 response in silica-induced C57BL/6 mouse lung inflammation and fibrosis model assessed as decrease in IFN-gamma mRNA expression in lung at 2 mg, ip administered every day measured on day 7 by real time RT-PCR method relative to silica-treated control; assay type: functional, organism-based
Mus musculus [33] = experiment: Antiinflammatory activity in C57BL/6 mouse silicosis model assessed as reduction in silica-induced accumulation of total cells in bronchoalveolar lavage fluid at 2 mg, ip administered every day measured on day 7,28 and 56 by Giemsa staining method; assay type: functional, organism-based
Mus musculus [34] = experiment: Inhibition of Th17 cell differentiation in silica-induced C57BL/6 mouse lung inflammation and fibrosis model assessed as increase in IL-23 mRNA expression in lung at 2 mg, ip administered every day measured on day 28, 56 by real time RT-PCR method relative to silica-treated control; assay type: functional, organism-based
Mus musculus [35] = experiment: Inhibition of Th2 response in silica-induced C57BL/6 mouse lung inflammation and fibrosis model assessed as decrease in IL-4 level in bronchoalveolar lavage fluid at 2 mg, ip administered every day measured on day 7, 28, 56 by cytometric bead array method relative to silica-treated control; assay type: functional, organism-based
Mus musculus [36] = experiment: Inhibition of Th17 response in spleen in silica-induced C57BL/6 mouse lung inflammation and fibrosis model assessed as decrease in level of CD4+T cells coexpressing IL-17A at 2 mg, ip administered every day measured on day 56 by flow cytometric analysis (reference value: 0.6 +/- 0.03%); assay type: functional, CD4+T cell

For `O=C(O)[C@H]1O[C@@H](Oc2cc3oc(-c4ccccc4)cc(=O)c3c(O)c2O)[C@H](O)[C@@H](O)[C@@H]1O` [BAICALIN], the Activity (Mus musculus [1]) was “Active”, the Activity (Mus musculus [2]) was “inactive” and the Activity (Mus musculus [3]) was “Active”. The inhibition (Mus musculus [4]) was “inactive”, the Activity (Mus musculus [5]) was “Active” and the inhibition (Mus musculus [6]) was “Active”. For the same compound, the Activity (Mus musculus [7]) was “Active”, the Activity (Mus musculus [8]) was 15.92% and the inhibition (Mus musculus [9]) was “inactive”. For the same compound, the inhibition (Mus musculus [10]) was “Active”, the “IL-17A+ CD4+ T cells” value (Mus musculus [11]) was 0.42% and the Activity (Mus musculus [12]) was 11.76%. For the same compound, the inhibition (Mus musculus [13]) was “Active”, the Activity (Mus musculus [14]) was 13.72% and the Activity (Mus musculus [15]) was “Active”. For the same compound, the inhibition (Mus musculus [16]) was “Active”, the inhibition (Mus musculus [17]) was “Active” and the Activity (Mus musculus [18]) was 14.34%. For the same compound, the Activity (Mus musculus [19]) was “Active”, the “IL-17A+ CD4+ T cells” value (Mus musculus [20]) was 0.46% and the inhibition (Mus musculus [21]) was “Active”. The inhibition (Mus musculus [22]) was “Active”, the Activity (Mus musculus [23]) was “Active” and the inhibition (Mus musculus [24]) was “Active”. The inhibition (Mus musculus [25]) was “inactive”, the Activity (Mus musculus [26]) was 10.3% and the inhibition (Mus musculus [27]) was “Active”. The “IL-17A+ CD4+ T cells” value (Mus musculus [28]) was 0.42%, the “IL-17A+ CD4+ T cells” value (Mus musculus [29]) was 0.5% and the Activity (Mus musculus [30]) was “Active”. For the same compound, the Activity (Mus musculus [31]) was 17.4%, the inhibition (Mus musculus [32]) was “Active” and the Activity (Mus musculus [33]) was “Active”. For the same compound, the inhibition (Mus musculus [34]) was “Active”, the inhibition (Mus musculus [35]) was “Active” and the “IL-17A+ CD4+ T cells” value (Mus musculus [36]) was 0.4%.
